# Assay results from ChEMBL document CHEMBL1201862, “PubChem BioAssay data set” (2004).
#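 The compound was tested at five concentrations on cells cultured in 96-well plates, with a 48-hour exposure period. GI50 = concentration required for 50% inhibition of growth.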 Active and inactive are the calls of the source. Cut-off read from the data, not from the text of the source: active = GI50 up to about 1.1 µM and inactive = higher.
# Columns and labels:
# Test in all cases: NCI-60 cell line screen, 48 h
# KM12 = tested on: KM12
# OVCAR-8 = tested on: OVCAR-8
# EKVX = tested on: EKVX
# OVCAR-4 = tested on: OVCAR-4
# UO-31 = tested on: UO-31
# SNB-75 = tested on: SNB-75
# NCI/ADR-RES = tested on: NCI/ADR-RES
# BT-549 = tested on: BT-549
# MDA-MB-231 = tested on: MDA-MB-231
# K562 = tested on: K562
# SK-MEL-28 = tested on: SK-MEL-28
# HOP-92 = tested on: HOP-92
# NCI-H522 = tested on: NCI-H522
# SK-OV-3 = tested on: SK-OV-3
# SK-MEL-2 = tested on: SK-MEL-2
# 786-0 = tested on: 786-0
# PC-3 = tested on: PC-3
# HT-29 = tested on: HT-29
# CAKI-1 = tested on: CAKI-1
# SN12C = tested on: SN12C
# SR = tested on: SR
# NCI-H460 = tested on: NCI-H460
# NCI-H23 = tested on: NCI-H23
# SF-295 = tested on: SF-295
# RXF 393 = tested on: RXF 393
# SW-620 = tested on: SW-620
# NCI-H226 = tested on: NCI-H226
# MDA-MB-435 = tested on: MDA-MB-435
# U-251 = tested on: U-251
# MOLT-4 = tested on: MOLT-4
# SK-MEL-5 = tested on: SK-MEL-5
# A549 = tested on: A549
# Malme-3M = tested on: Malme-3M
# M14 = tested on: M14
# Hs-578T = tested on: Hs-578T
# SNB-19 = tested on: SNB-19
# MDA-N = tested on: MDA-N
# A498 = tested on: A498
# OVCAR-5 = tested on: OVCAR-5
# RPMI-8226 = tested on: RPMI-8226
# T47D = tested on: T47D
# TK-10 = tested on: TK-10
# SF-268 = tested on: SF-268
# HCT-15 = tested on: HCT-15
# HCC 2998 = tested on: HCC 2998
# MCF7 = tested on: MCF7
# UACC-257 = tested on: UACC-257
# ACHN = tested on: ACHN
# HCT-116 = tested on: HCT-116
# UACC-62 = tested on: UACC-62
# SF-539 = tested on: SF-539
# LOX IMVI = tested on: LOX IMVI
# IGROV-1 = tested on: IGROV-1
# COLO 205 = tested on: COLO 205
# HOP-62 = tested on: HOP-62
# OVCAR-3 = tested on: OVCAR-3
# CCRF-CEM = tested on: CCRF-CEM
# HL-60 = tested on: HL-60
# DU-145 = tested on: DU-145
smiles,measurement,setting,value
CC1=C/C(=N/N2C(=O)/C(=C/c3ccc(Cl)cc3)N=C2c2ccccc2)CC(C)(C)C1,GI50,KM12,51.1 µM (inactive)
same,GI50,OVCAR-8,32.7 µM (inactive)
same,GI50,EKVX,81.7 µM (inactive)
same,GI50,OVCAR-4,45.9 µM (inactive)
same,GI50,UO-31,> 100 µM (inactive)
same,GI50,SNB-75,31.5 µM (inactive)
same,GI50,NCI/ADR-RES,60.7 µM (inactive)
same,GI50,BT-549,> 100 µM (inactive)
same,GI50,MDA-MB-231,> 100 µM (inactive)
same,GI50,K562,66.4 µM (inactive)
same,GI50,SK-MEL-28,> 100 µM (inactive)
same,GI50,HOP-92,94.8 µM (inactive)
same,GI50,NCI-H522,30 µM (inactive)
same,GI50,SK-OV-3,> 100 µM (inactive)
same,GI50,SK-MEL-2,24.9 µM (inactive)
same,GI50,786-0,57 µM (inactive)
same,GI50,PC-3,61.2 µM (inactive)
same,GI50,HT-29,70.5 µM (inactive)
same,GI50,CAKI-1,> 100 µM (inactive)
same,GI50,SN12C,> 100 µM (inactive)
same,GI50,SR,31 µM (inactive)
same,GI50,NCI-H460,> 100 µM (inactive)
same,GI50,NCI-H23,> 100 µM (inactive)
same,GI50,SF-295,51.9 µM (inactive)
same,GI50,RXF 393,91.6 µM (inactive)
same,GI50,SW-620,76.2 µM (inactive)
same,GI50,NCI-H226,90.2 µM (inactive)
same,GI50,MDA-MB-435,51.3 µM (inactive)
same,GI50,U-251,21.5 µM (inactive)
same,GI50,MOLT-4,25 µM (inactive)
same,GI50,SK-MEL-5,35.7 µM (inactive)
same,GI50,A549,78.2 µM (inactive)
same,GI50,Malme-3M,> 100 µM (inactive)
same,GI50,M14,> 100 µM (inactive)
same,GI50,Hs-578T,52 µM (inactive)
same,GI50,SNB-19,65.5 µM (inactive)
same,GI50,MDA-N,67.6 µM (inactive)
same,GI50,A498,> 100 µM (inactive)
same,GI50,OVCAR-5,> 100 µM (inactive)
same,GI50,RPMI-8226,20.9 µM (inactive)
same,GI50,T47D,85.9 µM (inactive)
same,GI50,TK-10,89.5 µM (inactive)
same,GI50,SF-268,73.3 µM (inactive)
same,GI50,HCT-15,> 100 µM
same,GI50,HCC 2998,> 100 µM (inactive)
same,GI50,MCF7,49.8 µM (inactive)
same,GI50,UACC-257,69.2 µM (inactive)
same,GI50,ACHN,> 100 µM (inactive)
same,GI50,HCT-116,91.8 µM (inactive)
same,GI50,UACC-62,61.9 µM (inactive)
same,GI50,SF-539,47.1 µM (inactive)
same,GI50,LOX IMVI,42.1 µM (inactive)
same,GI50,IGROV-1,52.1 µM (inactive)
same,GI50,COLO 205,> 100 µM (inactive)
same,GI50,HOP-62,54.2 µM (inactive)
Cn1c(=O)c2[nH]c(/N=N\n3ccc4ccccc43)nc2n(C)c1=O,GI50,KM12,> 100 µM (inactive)
same,GI50,OVCAR-8,> 100 µM (inactive)
same,GI50,EKVX,> 100 µM (inactive)
same,GI50,OVCAR-4,> 100 µM (inactive)
same,GI50,UO-31,> 100 µM (inactive)
same,GI50,SNB-75,> 100 µM (inactive)
same,GI50,NCI/ADR-RES,> 100 µM (inactive)
same,GI50,BT-549,> 100 µM (inactive)
same,GI50,MDA-MB-231,> 100 µM (inactive)
same,GI50,K562,> 100 µM (inactive)
same,GI50,SK-MEL-28,> 100 µM (inactive)
same,GI50,NCI-H522,> 100 µM (inactive)
same,GI50,SK-OV-3,> 100 µM (inactive)
same,GI50,786-0,> 100 µM (inactive)
same,GI50,OVCAR-3,> 100 µM (inactive)
same,GI50,PC-3,> 100 µM (inactive)
same,GI50,HT-29,> 100 µM (inactive)
same,GI50,CAKI-1,> 100 µM (inactive)
same,GI50,SN12C,> 100 µM (inactive)
same,GI50,CCRF-CEM,> 100 µM (inactive)
same,GI50,SR,> 100 µM (inactive)
same,GI50,NCI-H460,> 100 µM (inactive)
same,GI50,NCI-H23,> 100 µM (inactive)
same,GI50,SF-295,> 100 µM (inactive)
same,GI50,RXF 393,> 100 µM (inactive)
same,GI50,SW-620,> 100 µM (inactive)
same,GI50,NCI-H226,> 100 µM (inactive)
same,GI50,MDA-MB-435,> 100 µM (inactive)
same,GI50,U-251,> 100 µM (inactive)
same,GI50,MOLT-4,> 100 µM (inactive)
same,GI50,SK-MEL-5,> 100 µM (inactive)
same,GI50,A549,> 100 µM (inactive)
same,GI50,Malme-3M,> 100 µM (inactive)
same,GI50,M14,> 100 µM (inactive)
same,GI50,Hs-578T,> 100 µM (inactive)
same,GI50,SNB-19,> 100 µM (inactive)
same,GI50,MDA-N,> 100 µM (inactive)
same,GI50,HL-60,> 100 µM (inactive)
same,GI50,A498,> 100 µM (inactive)
same,GI50,OVCAR-5,> 100 µM (inactive)
same,GI50,RPMI-8226,> 100 µM (inactive)
same,GI50,T47D,> 100 µM (inactive)
same,GI50,TK-10,> 100 µM (inactive)
same,GI50,SF-268,> 100 µM (inactive)
same,GI50,HCT-15,> 100 µM
same,GI50,HCC 2998,> 100 µM (inactive)
same,GI50,DU-145,> 100 µM (inactive)
same,GI50,UACC-257,> 100 µM (inactive)
same,GI50,ACHN,> 100 µM (inactive)
same,GI50,HCT-116,> 100 µM (inactive)
same,GI50,UACC-62,> 100 µM (inactive)
same,GI50,SF-539,> 100 µM (inactive)
same,GI50,LOX IMVI,> 100 µM (inactive)
same,GI50,COLO 205,> 100 µM (inactive)
same,GI50,HOP-62,> 100 µM (inactive)
O=C1c2c(Br)sc(Br)c2C(=O)C1(O)O,GI50,KM12,> 100 µM (inactive)
same,GI50,OVCAR-8,35.7 µM (inactive)
same,GI50,EKVX,53.6 µM (inactive)
same,GI50,OVCAR-4,18.3 µM (inactive)
same,GI50,UO-31,34.2 µM (inactive)
same,GI50,SNB-75,36.4 µM (inactive)
same,GI50,NCI/ADR-RES,> 100 µM (inactive)
same,GI50,BT-549,19.3 µM (inactive)
same,GI50,K562,27.7 µM (inactive)
same,GI50,SK-MEL-28,> 100 µM (inactive)
same,GI50,HOP-92,17.9 µM (inactive)
same,GI50,NCI-H522,18.8 µM (inactive)
same,GI50,SK-OV-3,> 100 µM (inactive)
same,GI50,SK-MEL-2,29.8 µM (inactive)
same,GI50,786-0,34 µM (inactive)
same,GI50,OVCAR-3,19.4 µM (inactive)
same,GI50,PC-3,22.8 µM (inactive)
same,GI50,HT-29,39.3 µM (inactive)
same,GI50,CAKI-1,18.6 µM (inactive)
same,GI50,SN12C,98.9 µM (inactive)
same,GI50,CCRF-CEM,27.7 µM (inactive)
same,GI50,SR,24.1 µM (inactive)
same,GI50,NCI-H460,> 100 µM (inactive)
same,GI50,NCI-H23,33.4 µM (inactive)
same,GI50,SF-295,> 100 µM (inactive)
same,GI50,RXF 393,19.1 µM (inactive)
same,GI50,SW-620,35.6 µM (inactive)
same,GI50,NCI-H226,> 100 µM (inactive)
same,GI50,MDA-MB-435,19.4 µM (inactive)
same,GI50,U-251,39.7 µM (inactive)
same,GI50,MOLT-4,33.6 µM (inactive)
same,GI50,SK-MEL-5,19.9 µM (inactive)
same,GI50,A549,> 100 µM (inactive)
same,GI50,Malme-3M,19.3 µM (inactive)
same,GI50,M14,19.2 µM (inactive)
same,GI50,Hs-578T,> 100 µM (inactive)
same,GI50,SNB-19,> 100 µM (inactive)
same,GI50,MDA-N,36.8 µM (inactive)
same,GI50,HL-60,41 µM (inactive)
same,GI50,A498,> 100 µM (inactive)
same,GI50,OVCAR-5,23.7 µM (inactive)
same,GI50,RPMI-8226,46.6 µM (inactive)
same,GI50,T47D,21.8 µM (inactive)
same,GI50,TK-10,72.3 µM (inactive)
same,GI50,SF-268,> 100 µM (inactive)
same,GI50,HCT-15,27.1 µM
same,GI50,HCC 2998,> 100 µM (inactive)
same,GI50,DU-145,> 100 µM (inactive)
same,GI50,MCF7,44.5 µM (inactive)
same,GI50,UACC-257,19.8 µM (inactive)
same,GI50,ACHN,31.8 µM (inactive)
same,GI50,HCT-116,19.7 µM (inactive)
same,GI50,UACC-62,76.2 µM (inactive)
same,GI50,SF-539,20.8 µM (inactive)
same,GI50,LOX IMVI,> 100 µM (inactive)
same,GI50,IGROV-1,> 100 µM (inactive)
same,GI50,COLO 205,23.4 µM (inactive)
same,GI50,HOP-62,> 100 µM (inactive)
